Read-outs that look alike come from different tables or passages of the source.
How the values were obtained:
[1] = tested on: SKLMS-1 leiomyosarcoma xenograft; test: SKLMS-1 leiomyosarcoma xenograft model; type: in vivo, nu/nu athymic mice; settings: day 21; olaratumab 60 mg/kg (loading dose 214 mg/kg), doxorubicin 3 mg/kg, i.p. twice a week; versus saline control
Description: 6 to 7-week-old female nu/nu athymic mice are injected with 5×10^6 SKLMS-1 (ATCC #HBT-88) cells/mouse in 50% Matrigel (BD Biosciences #356235). When tumors are approximately 300 mm^3 in volume, the mice are randomized by tumor volume into 4 treatment groups (n=12): Group 1 control mice are dosed with USP Saline (Aldwin Scientific #2F7124) at 10 μL/gram, Group 2 mice are dosed with olaratumab at 60 mg/kg (loading dose 214 mg/kg), Group 3 mice are dosed with doxorubicin (Sigma #D-1515) at 3 mg/kg and Group 4 mice are dosed with a combination of olaratumab and doxorubicin at the monotherapy concentrations of 60 mg/kg olaratumab and 3 mg/kg doxorubicin. The combinations are dosed so that olaratumab is administered 1-2 hours prior to doxorubicin on the days of treatment. All treatments are administered via intra-peritoneal injection twice a week on Tuesday and Friday.
Olaratumab and doxorubicin are prepared in USP Saline. Tumor volume is measured by three dimensional caliper measurements twice a week during the course of the study and calculated as volume in mm^3=L (longer of measured dimension)×W^2 (shorter dimension)×(pi/6). […] Relative changes in tumor volume (% T/C) are calculated using the tumor volume measurements taken at day 21 and the baseline tumor volume is the volume recorded on or just prior to first day of dosing.

[2] = tested on: patients with advanced STS; settings: interim analysis; for Disease Control Rate (CR + PR + SD) (%) (90% CI) / ORR (CR + PR) (%) (90% CI): RECIST 1.1
Description: The Study is an open-label, multicenter, Phase 2 trial in which patients with advanced STS not amenable to treatment with surgery or radiotherapy are treated with olaratumab in combination with doxorubicin or doxorubicin alone.
Enrolled patients who meet all eligibility criteria are randomized 1:1 to one of two treatment arms, Arm A or Arm B. Arm A patients receive olaratumab in combination with doxorubicin (hereinafter the “Combination Arm”) and Arm B patients receive doxorubicin alone (hereinafter the “Doxorubicin Arm”). Randomization of this Study is performed according to a dynamic randomization algorithm using 4 pre-defined risk factors: PDGFRα expression (positive vs. negative), number of previous lines of treatment (0 vs. 1+lines), histological tumor type (i.e., leiomyosarcoma vs. synovial sarcoma vs. other tumor type), and ECOG performance status (0-1 vs. 2). This dynamic randomization procedure is used to minimize imbalance between treatment groups. To determine tumor type and PDGFRα expression in patients, a tumor sample from either a biopsy or previously archived tumor tissue sample is sufficient. Biopsy is required to be performed within 21 days prior to randomization; archived tissue sample must also be available within this timeframe.
Combination Arm: 64 patients randomized in the Combination Arm receive 15 mg/kg of olaratumab on Days 1 and 8 of each 21-day treatment cycle, in combination with 75 mg/m^2 doxorubicin administered on Day 1 of each cycle. (Note: if premedication is required prior to the first doxorubicin infusion, this is to be done after the completion of olaratumab infusion, not before the olaratumab infusion. This premedication may be administered within the hour that follows completion of the olaratumab infusion.) The actual (not planned) administration of each doxorubicin infusion defines Day 1 of each 21-day treatment cycle. The combination treatment just described is to continue for up to 8 cycles at the investigator's discretion. During Cycles 5 through 8, patients being treated with doxorubicin may also be administered 750 mg/m^2 dexrazoxane on Day 1 of each cycle, (at the investigator's discretion) prior to doxorubicin on Day 1 of each 21-day cycle. If the dose of doxorubicin is reduced at any point in the Study, the dose of dexrazoxane is to be reduced accordingly, maintaining a dosage ratio of 10:1. For example, if doxorubicin is reduced to 60 mg/m^2, then dexrazoxane is to be reduced to 600 mg/m^2. Doxorubicin may be administered within the hour that follows completion of the olaratumab infusion. In the absence of PD or other withdrawal criteria, patients in the Combination Arm who have completed eight cycles of therapy are to receive subsequent olaratumab monotherapy, administered on Days 1 and 8 of each 21-day cycle. Furthermore, if doxorubicin is discontinued (e.g., for reasons of toxicity) prior to end of cycle 8 and in the absence of withdrawal criteria, patients may continue to receive olaratumab monotherapy. For patients who discontinue olaratumab during the first 8 cycles of treatment, doxorubicin may be continued (for up to 8 cycles), provided no withdrawal criteria are met.
Doxorubicin Arm: 65 patients randomized in the Doxorubicin Arm receive 75 mg/m^2 doxorubicin on Day 1 of each cycle, for up to 8 cycles at the investigator's discretion. The actual (not planned) administration of each doxorubicin infusion defines Day 1 of each 21-day treatment cycle. During cycles 5 through 8, 750 mg/m^2 dexrazoxane may also be administered on Day 1 of each cycle, (at the investigator's discretion) prior to doxorubicin on Day 1 of each 21-day cycle. If the dose of doxorubicin is reduced at any point in the Study, the dose of dexrazoxane is to be reduced accordingly, maintaining a dosage ratio of 10:1. For example, if doxorubicin is reduced to 60 mg/m^2, then dexrazoxane is to be reduced to 600 mg/m^2.

[3] = tested on: KHOS/NP osteosarcoma xenograft; test: KHOS/NP osteosarcoma xenograft model; type: in vivo, nu/nu athymic mice; settings: day 32; olaratumab 60 mg/kg (loading dose 214 mg/kg), doxorubicin 3 mg/kg, i.p. twice a week; versus saline control
Description: 6 to 7-week-old female nu/nu athymic mice are injected with 1×10^6 KHOS/NP (ATCC #CRL-1544) cells/mouse in 50% Matrigel (BD Biosciences #356235). When tumors are approximately 450 mm^3 in volume, the mice are randomized by tumor volume into 4 treatment groups (n=12): Group 1 control mice are dosed with USP Saline (Aldwin Scientific #2F7124) at 10 μL/gram, Group 2 mice are dosed with olaratumab at 60 mg/kg (loading dose 214 mg/kg), Group 3 mice are dosed with doxorubicin (Sigma #D-1515) at 3 mg/kg and Group 4 mice are dosed with a combination of olaratumab and doxorubicin at the monotherapy concentrations of 60 mg/kg olaratumab and 3 mg/kg doxorubicin. The combinations are dosed so that doxorubicin is administered 3 hours prior to olaratumab on the days of treatment. All treatments are administered via intra-peritoneal injection twice a week on Monday and Thursday.
Olaratumab and doxorubicin are prepared in USP Saline. Tumor volume is measured by three dimensional caliper measurements twice a week during the course of the study and calculated as volume in mm^3=L (longer of measured dimension)×W^2 (shorter dimension)×(pi/6). […] Relative changes in tumor volume (% T/C) are calculated using the tumor volume measurements taken at day 32, whereas the baseline tumor volume is the volume recorded on or just prior to first day of dosing.

[4] = tested on: A204 rhabdoid tumor xenograft; test: A204 rhabdoid xenograft model; type: in vivo, nu/nu athymic mice; settings: day 30; olaratumab 40 mg/kg i.p. 3x a week; versus HuIgG control
Description: 7 to 8-week-old female nu/nu athymic mice are injected with 5×10^6 A204 (ATCC #CRL-7900) cells/mouse in 100% Matrigel (BD Biosciences #356235). When tumors are approximately 340 mm^3 in volume, the mice are randomized by tumor volume into 2 treatment groups (n=12): Group 1 control mice are dosed with HuIgG (Equitech-Bio #SLH66-0001) at 40 mg/kg and Group 2 mice are dosed with olaratumab at 40 mg/kg. All treatments are administered via intra-peritoneal injection 3×a week on Monday, Wednesday and Friday.
Olaratumab is diluted in USP Saline (Aldwin Scientific #2F7124) at 4 mg/mL. Tumor volume is measured by three dimensional caliper measurements twice a week during the course of the study and calculated as volume in mm^3=L (longer of measured dimension)×W^2 (shorter dimension)×(pi/6). A repeated measures ANOVA is used to evaluate the differences in tumor growth and body weight between the treatment groups. Relative changes in tumor volume (%T/C) are calculated using the tumor volume measurements taken at day 30, whereas the baseline tumor volume is the volume recorded on or just prior to first day of dosing.

[5] = patients sub-typed with leiomyosarcoma

Molecule	% T/C (relative change in tumor volume) [1] [%]	OS Median Weeks (90% CI) ([2]; all STS subtypes, Kaplan-Meier) [weeks]	PFS Median Weeks (90% CI) ([2]; all STS subtypes, Kaplan-Meier, olaratumab 15 mg/kg Days 1 and 8, doxorubicin 75 mg/m^2 Day 1, 21-day cycle) [weeks]	12-month OS rate ([2]; 12 months) [%]	18-month OS rate ([2]; 18 months) [%]	Disease Control Rate (CR + PR + SD) (%) (90% CI) [2]	ORR (CR + PR) (%) (90% CI) [2]	Disease Control Rate (CR + PR + SD) (%) (90% CI) ([2]; listed as Doxorubicin Arm)	ORR (CR + PR) (%) (90% CI) ([2]; listed as Doxorubicin Arm)	PFS Other Sarcoma Median Weeks (90% CI) ([2]; patients sub-typed as other sarcomas) [weeks]	OS Leiomyosarcoma Median Weeks (90% CI) [2, 5] [weeks]	PFS Leiomyosarcoma Median Weeks (90% CI) [2, 5] [weeks]	OS Other Sarcoma Median Weeks (90% CI) ([2]; patients sub-typed with other sarcomas) [weeks]	% T/C (relative change in tumor volume) [3] [%]	% T/C (relative change in tumor volume) [4] [%]
COc1cccc2c1C(=O)c1c(O)c3c(c(O)c1C2=O)C[C@@](O)(C(=O)CO)C[C@@H]3O[C@H]1C[C@H](N)[C@H](O)[C@H](C)O1 [doxorubicin]	64	58.7	17.9	55.1	40.0	53.8	10.8	53.8	10.8	19.0	45.3	15.7	78.1	72	
olaratumab: recombinant human monoclonal IgG1 anti-PDGFRα antibody; two heavy chains SEQ ID NO: 9, two light chains SEQ ID NO: 10; CAS 1024603-93-7	64													79	37
